This is an account of results in ChEMBL document CHEMBL3301451, “MMV Malaria Box gametocyte functional viability assay screening”.

As usually defined, the inhibition is the drop in the measured response relative to a control, in per cent.

What all share (format): functional
What all share (set-up): concentration or dose not given beside the values

For one assay, the system named is Plasmodium berghei. In words: MMV: P. berghei-infected blood was withdrawn from mice by cardiac pucture before being immediately added to ookinete culture medium containing test compounds. 26 hr later, GFP-positive ookinetes were identified and counted by automated microscopy. All compounds were tested in 4 independent experiments and data presented here is the mean.

In assay [1] the test system is Plasmodium falciparum. Briefly: MMV: P. falciparum NF54 functionally mature Stage V gametocytes were incubated for 24 hr in the presence of the test compounds. Gamete formation was then triggered by addition of 2uM xantheurenic acid and temperature decrease to ~20C. Male gamete exflagellation was recorded and analysed by automated microscopy after 20 min. All compounds were tested in 4 independent experiments and data presented here is the mean.

The test system of assay [2] is Plasmodium falciparum. In words: MMV: P. falciparum NF54 functionally mature Stage V gametocytes were incubated for 24 hr in the presence of the test compounds. Gamete formation was then triggered by addition of 2uM xantheurenic acid and temperature decrease to ~20C. Female gamete formation was recorded 24 hr later by automated microscopy detection of surface labelling of female gametes with a Cy3-conjugated antibody reactive to Pfs25. All compounds were tested in 4 independent experiments and data presented here is the mean. Conditions: NF54, 24 h.

Molecules are shown by their SMILES.

Turning to `OC(CNC1CCCCC1)Cn1c2ccc(I)cc2c2cc(I)ccc21` (stereo not given), the inhibition with Plasmodium berghei is -21.59%; in the assay with Plasmodium falciparum [1], -12.3%; in the assay on Plasmodium falciparum [2], -48%.

Consider `CCC1(C)CC(CCNCc2ccccc2O)(c2ccc(C)cc2)CCO1` (stereo not given), for which the figures for the inhibition with Plasmodium berghei, in the assay on Plasmodium falciparum [1] and in the assay with Plasmodium falciparum [2] were -38.74%, -6.89% and 7.59%, respectively.

In the case of `Oc1c(C(Nc2ccccn2)c2cccc(Oc3ccccc3)c2)ccc2cccnc12` (stereo not given), the inhibition in the assay on Plasmodium berghei is -4.794%; in the assay with Plasmodium falciparum [1] it was -38.1%; with Plasmodium falciparum [2] it was -17.6%.

With `CN1CCN(c2nc(Nc3ccc(O)cc3)nc3ccccc23)CC1.Cl`, the results for the inhibition with Plasmodium berghei, in the assay with Plasmodium falciparum [1] and in the assay on Plasmodium falciparum [2] were -15.95%, 2% and -25.1%, respectively.

As to `COc1ccc(CN2CCN(Cc3ccccc3)CC2)c(O)c1`, the values for the inhibition in the assay with Plasmodium berghei, in the assay on Plasmodium falciparum [1] and in the assay with Plasmodium falciparum [2] were -17.51%, -11.1% and -16.4%, respectively.

For the compound `O=C(NC(c1ccccc1)c1ccc2cccnc2c1O)c1ccccc1` (stereo not given), the inhibition in the assay on Plasmodium berghei was 6.162%; with Plasmodium falciparum [1], 5.16%; in the assay with Plasmodium falciparum [2], -22.7%.

`COc1ccc(C(=O)Nc2ccc(Cl)cc2C(=O)Nc2ccncc2)cc1`: the inhibition in the assay with Plasmodium berghei was -4.155%; with Plasmodium falciparum [1] it was 14.4%; in the assay with Plasmodium falciparum [2] it was -19.7%.

For `COc1ccc(-c2nc(N3CCN(C(=O)C4CCCCC4)CC3)c3c4c(sc3n2)CCCC4)cc1`, the inhibition was -8.277% in the assay on Plasmodium berghei, 1.21% in the assay on Plasmodium falciparum [1] and -9.88% in the assay with Plasmodium falciparum [2].

In the case of `COc1ccccc1N1CCN(C(CNS(=O)(=O)c2ccc(Cl)cc2)c2cccnc2)CC1` (stereo not given), the inhibition in the assay on Plasmodium berghei was -1.627%; in the assay with Plasmodium falciparum [1], 3.66%; with Plasmodium falciparum [2], -39.2%.

With `Cc1cc(N2CCN(C3CCCC3)CC2)n2c(nc3ccccc32)c1C#N`, the inhibition was -5.169% in the assay with Plasmodium berghei, 6.61% in the assay with Plasmodium falciparum [1] and -12.2% with Plasmodium falciparum [2].

For `c1ccc2cc3c(Nc4ccc(N5CCOCC5)cc4)ccnc3cc2c1`, the inhibition in the assay on Plasmodium berghei was 12.53%; in the assay on Plasmodium falciparum [1] it was 13.2%; in the assay with Plasmodium falciparum [2], -0.0777%.

With `COc1ccc2nc(C)cc(Nc3ccccc3O)c2c1`, the results for the inhibition with Plasmodium berghei, in the assay with Plasmodium falciparum [1] and with Plasmodium falciparum [2] were -6.855%, -8.38% and -42%, respectively.

On to `CCc1ccc(Nc2cc(C)c3ccc(O)cc3n2)cc1.Cl`, for which the inhibition is -20.95% with Plasmodium berghei, 15.2% with Plasmodium falciparum [1] and -14% in the assay with Plasmodium falciparum [2].

For the compound `CCc1ccc(Nc2cc(C)nc3nc(C)nn23)cc1`, the figures for the inhibition in the assay on Plasmodium berghei, with Plasmodium falciparum [1] and with Plasmodium falciparum [2] were -14.94%, 20.5% and -17.7%, respectively.

In the case of `COc1ccc(-c2nc(NC(=O)CS(=O)(=O)c3ccc(F)cc3)sc2C)cc1`, the inhibition in the assay on Plasmodium berghei is -6.755%; in the assay with Plasmodium falciparum [1], -20.9%; in the assay on Plasmodium falciparum [2], 7.25%.

Take `Cc1cc(C)c2nc(N3CCC(C(=O)NCCCN4CCC(N5CCCCC5)CC4)CC3)sc2c1`: the inhibition in the assay on Plasmodium berghei was -9.223%; with Plasmodium falciparum [1] it was 8.94%; with Plasmodium falciparum [2], 21.7%.

For `CCOc1c(Br)cc(C2C(C(=O)OC)=CN(C)C=C2C(=O)OC)cc1OC`, the inhibition in the assay on Plasmodium berghei was -9.574%; in the assay on Plasmodium falciparum [1], 8.8%; with Plasmodium falciparum [2] it was 4.74%.

For `Cn1c(C(=O)c2cccc3ccccc23)nc2ccccc21`, the inhibition in the assay on Plasmodium berghei is -7.647%; in the assay on Plasmodium falciparum [1], -24.7%; in the assay with Plasmodium falciparum [2] it was -20.6%.

For `CC(C)CCNCC(O)Cn1c2ccccc2c2ccccc21.Cl` (stereo not given), the inhibition in the assay with Plasmodium berghei was 4.97%; in the assay on Plasmodium falciparum [1], -10.1%; with Plasmodium falciparum [2], -12.9%.

In the case of `O=[N+]([O-])c1ccc(C=NNc2nc3ccccc3[nH]2)cc1`, the inhibition in the assay with Plasmodium berghei is -19.94%; with Plasmodium falciparum [1], 18.3%; in the assay with Plasmodium falciparum [2], -17%.

With `COc1ccccc1C(=O)ON=C(N)Cc1cccc2ccccc12`, the values for the inhibition in the assay with Plasmodium berghei, with Plasmodium falciparum [1] and with Plasmodium falciparum [2] were -22.37%, 30.9% and 14.9%, respectively.

`CCOc1ccc(C2N(C)c3ccccc3N2C)cc1`: the inhibition is -11.42% in the assay with Plasmodium berghei, -6.18% in the assay on Plasmodium falciparum [1] and 9.89% in the assay with Plasmodium falciparum [2].

For the compound `CCCN(CCC)CCCNC(=O)c1cc2c(-c3ccc(OC)c(OC)c3)nn(C)c2s1`, the inhibition was 5.504% in the assay on Plasmodium berghei, -20.2% in the assay on Plasmodium falciparum [1] and -7.86% in the assay with Plasmodium falciparum [2].

With `COC(=O)c1ccc(C2C3=C(O)CC(c4ccc(F)cc4)CC3=Nc3ccccc3N2C(=O)c2ccccc2)cc1` (stereo not given), the inhibition is -3.179% with Plasmodium berghei, -76.8% in the assay on Plasmodium falciparum [1] and -31.4% with Plasmodium falciparum [2].

Turning to `COc1ccc2nc(N)nc(C)c2c1`, the inhibition is -8.497% in the assay on Plasmodium berghei, 45.7% in the assay on Plasmodium falciparum [1] and 6.91% in the assay with Plasmodium falciparum [2].

Turning to `CCOc1ccccc1NC(=O)CN1CCN(C(=O)c2ccco2)CC1`, the inhibition in the assay on Plasmodium berghei was -13.05%; in the assay on Plasmodium falciparum [1] it was 19.3%; in the assay on Plasmodium falciparum [2] it was 12.9%.

`Cc1nc2ccccc2c(O)c1CC=C(Cl)Cl`: the inhibition was 2.285% in the assay with Plasmodium berghei, 6.46% in the assay with Plasmodium falciparum [1] and -3.75% in the assay on Plasmodium falciparum [2].

Turning to `COCCN(C(=O)Cc1cccs1)C(C(=O)NCc1ccc(OC)cc1)c1ccc(C(C)C)cc1` (stereo not given), the inhibition was 0.1558% with Plasmodium berghei, 9.73% with Plasmodium falciparum [1] and -5.87% in the assay with Plasmodium falciparum [2].

For the compound `COc1ccc(N2CCN(C(CNC(=O)CC(C)(C)C)c3ccc4c(c3)OCO4)CC2)cc1` (stereo not given), the inhibition in the assay on Plasmodium berghei was -5.344%; in the assay with Plasmodium falciparum [1], 1.8%; with Plasmodium falciparum [2], -24.8%.

On to `CCCCOc1ccc(C(=O)Nc2cc(C)on2)cc1`, for which the values for the inhibition in the assay on Plasmodium berghei, in the assay with Plasmodium falciparum [1] and in the assay with Plasmodium falciparum [2] were 1.333%, 47.5% and -26.5%, respectively.

`CCN1CCN(c2cc(C)c3cc(NC(=O)c4ccc(OC)c(OC)c4)ccc3n2)CC1`: the inhibition in the assay on Plasmodium berghei is -2.902%; in the assay with Plasmodium falciparum [1] it was -3.72%; in the assay with Plasmodium falciparum [2] it was -8.68%.

For `CCCC(c1nnnn1C1CCCCC1)N1CCN(C(=O)c2ccco2)CC1.Cl` (stereo not given), the figures for the inhibition in the assay on Plasmodium berghei, in the assay with Plasmodium falciparum [1] and in the assay with Plasmodium falciparum [2] were -10.21%, 23.7% and -48.5%, respectively.

In the case of `Oc1ccc2ccccc2c1CNc1nc2ccccc2[nH]1`, the results for the inhibition with Plasmodium berghei, with Plasmodium falciparum [1] and in the assay with Plasmodium falciparum [2] were -28.7%, 31.6% and -19.1%, respectively.

As for `CCCc1c(CC)c(=N)c2ccccc2n1C`, the inhibition in the assay with Plasmodium berghei was -31.4%; with Plasmodium falciparum [1] it was -39.2%; in the assay on Plasmodium falciparum [2] it was -32.4%.

With `CN(C)CCCNCc1ccc(-c2ccc(F)c(Cl)c2)o1.Cl`, the inhibition in the assay with Plasmodium berghei is -12.37%; in the assay on Plasmodium falciparum [1], 51.9%; with Plasmodium falciparum [2], 38.4%.

`CN(C)c1ccc(N=Cc2ccc(N3CCOCC3)cc2)cc1`: the figures for the inhibition in the assay with Plasmodium berghei, in the assay with Plasmodium falciparum [1] and in the assay on Plasmodium falciparum [2] were 4.978%, 34.2% and -21.3%, respectively.

For the compound `O=C(Nc1cccc(-c2nc3ccccc3[nH]2)c1)c1cccc(NC(=O)c2ccco2)c1`, the inhibition in the assay on Plasmodium berghei was -15.24%; in the assay on Plasmodium falciparum [1], 31.6%; with Plasmodium falciparum [2], -35.1%.

`COCCn1c(C)nc2ccccc2c1=O`: the inhibition with Plasmodium berghei is -11.98%; in the assay with Plasmodium falciparum [1], 22.3%; in the assay on Plasmodium falciparum [2], -15.4%.

Consider `CCOc1ccc2nc(C)cc(Nc3ccc(N(C)C)cc3)c2c1.Cl`, for which the inhibition in the assay with Plasmodium berghei is -13.58%; in the assay with Plasmodium falciparum [1], -23.6%; with Plasmodium falciparum [2], -42.3%.

With `O=C(Nc1ccc(CN2CCOCC2)cc1)c1ccc(-c2ccc(Br)cc2)o1`, the inhibition in the assay on Plasmodium berghei is -6.99%; with Plasmodium falciparum [1] it was 14.4%; in the assay on Plasmodium falciparum [2], -17.9%.

For `CCOC(=O)C1=C(C)N=c2sc(=Cc3cc(Cl)ccc3O)c(=O)n2C1c1ccc(OC)cc1` (stereo not given), the figures for the inhibition with Plasmodium berghei, in the assay with Plasmodium falciparum [1] and in the assay on Plasmodium falciparum [2] were 5.932%, -29.2% and -13%, respectively.

As to `CN(C)CCNc1cc(-c2ccccc2)nc2ccccc12`, the inhibition in the assay with Plasmodium berghei was -1.411%; in the assay with Plasmodium falciparum [1], 2.52%; in the assay with Plasmodium falciparum [2], -24.1%.

In the case of `CCCCCCc1cc(O)c2c3c(c(=O)oc2c1)CCC(C)C3` (stereo not given), the inhibition with Plasmodium berghei is -17.21%; with Plasmodium falciparum [1], -1.29%; with Plasmodium falciparum [2], -7.13%.

For `COc1ccc(CN2CCCC(C(=O)c3ccc(C(F)(F)F)cc3)C2)c(O)c1` (stereo not given), the inhibition in the assay with Plasmodium berghei was -17.45%; with Plasmodium falciparum [1] it was 36.1%; in the assay on Plasmodium falciparum [2], 6.89%.

`COc1ccc(C(=O)NC(c2ccccc2Cl)c2cc(Cl)c3cccnc3c2O)cc1` (stereo not given): the results for the inhibition in the assay on Plasmodium berghei, in the assay with Plasmodium falciparum [1] and in the assay on Plasmodium falciparum [2] were -9.997%, 2.11% and -6.93%, respectively.

For `COCCNCC(O)Cn1c2ccc(Cl)cc2c2cc(Cl)ccc21` (stereo not given), the values for the inhibition in the assay on Plasmodium berghei, in the assay on Plasmodium falciparum [1] and with Plasmodium falciparum [2] were -6.812%, -2.59% and -7.62%, respectively.

For `O=C(Nc1ccc(-c2nc3cc(NC(=O)c4ccc(Cl)cc4)ccc3[nH]2)cc1)c1ccc(Cl)cc1`, the results for the inhibition in the assay on Plasmodium berghei, with Plasmodium falciparum [1] and with Plasmodium falciparum [2] were -7.523%, -17.6% and -21.8%, respectively.

Take `COc1ccccc1N1C(=N)SC(=Cc2ccc(OCc3ccccc3F)cc2)C1=O`: the values for the inhibition in the assay with Plasmodium berghei, with Plasmodium falciparum [1] and in the assay on Plasmodium falciparum [2] were 33.34%, 12.8% and 10.4%, respectively.

Regarding `COC(=O)c1ccc(Cl)c2c1C1C=CCC1C(c1cccc3ccccc13)N2` (stereo not given), the inhibition is -8.751% in the assay with Plasmodium berghei, 42.4% with Plasmodium falciparum [1] and 10.4% in the assay with Plasmodium falciparum [2].

Consider `CCOC(=O)c1c(C)n(-c2ccc(Cl)cc2)c2ccc(OC(=O)C=Cc3ccccc3)cc12`, for which the inhibition was -22.23% with Plasmodium berghei, 18.8% in the assay with Plasmodium falciparum [1] and -9.97% with Plasmodium falciparum [2].
